Structures are written as SMILES.

The term melting point denotes the temperature, or range, at which the solid turns liquid.

The first series concerns the target T1, FAAH (Rattus norvegicus, UniProt P97612).
T1 construct: using a solubilized liver plasma membrane extract containing FAAH; from tissue; host or cells: liver plasma membrane extract (solubilized)
T1 sequence (P97612 1-579): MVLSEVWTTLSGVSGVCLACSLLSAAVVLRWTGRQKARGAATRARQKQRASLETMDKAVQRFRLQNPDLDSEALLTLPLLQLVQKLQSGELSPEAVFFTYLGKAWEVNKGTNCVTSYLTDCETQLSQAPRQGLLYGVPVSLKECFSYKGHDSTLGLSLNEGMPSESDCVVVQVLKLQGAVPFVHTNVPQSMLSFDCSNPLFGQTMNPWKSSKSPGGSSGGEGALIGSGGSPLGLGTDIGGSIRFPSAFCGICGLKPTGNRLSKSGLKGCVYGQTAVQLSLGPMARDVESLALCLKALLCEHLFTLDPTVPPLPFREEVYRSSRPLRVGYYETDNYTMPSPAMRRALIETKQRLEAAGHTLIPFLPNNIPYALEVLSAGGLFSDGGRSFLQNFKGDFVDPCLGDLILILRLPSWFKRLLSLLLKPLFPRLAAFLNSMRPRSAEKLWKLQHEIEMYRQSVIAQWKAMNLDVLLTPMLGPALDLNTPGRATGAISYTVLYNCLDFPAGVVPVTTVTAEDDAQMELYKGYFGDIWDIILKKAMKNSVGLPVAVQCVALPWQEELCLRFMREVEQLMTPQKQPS
Description: FAAH enzyme inhibition, breakdown of 14C-oleamide to oleic acid. Conditions: 5-(2-pyridyl)-substituted oxazole head group, FIG. 4. The format is biochemical. On the procedure:
All enzyme assays were performed at 20-23° C. using a solubilized liver plasma membrane extract containing FAAH in a reaction buffer of 125 mM Tris, 1 mM EDTA, 0.2% glycerol, 0.02% Triton X-100, 0.4 mM HEPES, pH 9.0 buffer (M. P. Patricelli, et al., (1998) Bioorg. Med. Chem. Lett. 8, 613-618; and J. E. Patterson, et al., (1996) J. Am. Chem. Soc. 118, 5938-5945). The initial rates of hydrolysis were monitored by following the breakdown of ^14C-oleamide to oleic acid as previously described (B. F. Cravatt, et al., (1995) Science 268, 1506-1509; and M. P. Patricelli, et al., (1998) Bioorg. Med. Chem. Lett. 8, 613-618). The inhibition was reversible, non time-dependent and linear least squares fits were used for all reaction progress curves and R^2 values were consistently >0.97. IC50 values were determined from the inhibition observed at 3-5 different inhibitor concentrations (from three or more trials at each inhibitor concentration) using the formula IC50=[I]/[(K0/Ki)−1], where K0 is the control reaction rate without inhibitor and Ki is the rate with inhibitor at concentration [I] (K. Conde-Frieboes, et al., (1996) J. Am. Chem. Soc. 118, 5519-5525). Ki values were determined by the Dixon method (x-intercepts of weighted linear fits of [I] versus 1/rate plots at constant substrate concentration, which were converted to Ki values using the formula Ki=−xint/[1+[S]/Km]).
As to `O=C(CCCCCCc1ccccc1)c1ncc(-c2ccccn2)o1` [Compound 200, 1-Oxo-1-[5-(2-pyridyl)oxazol-2-yl]-7-phenylheptane], the “difference in Ki between compounds 185 and 200” value is “factor of two”.
On the same count and under the same terms, to `CCCCCCCCCCCC(=O)c1ncc(-c2ccccn2)o1` [Compound 185, 1-(5-(Pyridin-2-yl)oxazol-2-yl)dodecan-1-one] belongs “factor of two”.

The test system of another series is mice. The series is described as follows: tail withdrawal / tail immersion test (thermal pain). The format is in vivo. The following applies: 10 mg/kg, i.p., 60 minutes following injection, p<0.001. On the procedure:
FIG. 11 illustrates a bar graph showing the reduced thermal pain responses 60 minutes following the injection of OL-135 (10 mg/kg, i.p.). This test is the tail withdrawal test and there is no effect with the vehicle while there is marked delay after administration of the OL-135. [p<0.001; N=12 mice per group; results shown as means ±S.E.]
The mice received an i.p. injection of vehicle or SR 141716A (3 mg/kg); 10 minutes later all subjects were given OL-135 (10 mg/kg, i.p.) and then evaluated in the tail immersion test one hour after the second injection. (p<0.001 for OL-135-treated mice that were pretreated with vehicle versus either their pre-injection baseline latencies or OL-135 treated mice that were pretreated with SR 141716A.) Results are shown as means ±S. E. N=6 mice/group.
For the compound `O=C(CCCCCCc1ccccc1)c1ncc(-c2ccccn2)o1` [OL-135], the “thermal pain response, tail withdrawal test” value was “marked delay”.

The series is the same for the next values; noted with them: SR 141716A 3 mg/kg i.p. 10 minutes before OL-135 10 mg/kg i.p., one hour after second injection.
For `Cc1c(C(=O)NN2CCCCC2)nn(-c2ccc(Cl)cc2Cl)c1-c1ccc(Cl)cc1` [SR 141716A, reference compound], the “effect on OL-135 analgesia, tail immersion test” value is listed as “blocking the analgesic effects of OL-135”.

In a further series the test system is mice. Description: hot plate test (thermal pain). The following applies: 10 mg/kg, i.p., 60 minutes following injection, p<0.01. The format is in vivo. On the procedure: FIG. 12 illustrates a bar graph showing the reduced thermal pain responses 60 minutes following the injection of OL-135 (10 mg/kg, i.p.). This test is the hot plate test and there is no effect with the vehicle and there is some delay after administration of the OL-135. [p<0.01; N=12 mice per group; results shown as means ±S.E.]
The mice received an i.p. injection of vehicle or SR 141716A (3 mg/kg); 10 minutes later all subjects were given OL-135 (10 mg/kg, i.p.) and then evaluated in the hot plate test one hour after the second injection. [p<0.001 for OL-135-treated mice that were pretreated with vehicle versus either their pre-injection baseline latencies or OL-135 treated mice that were pretreated with SR 141716A. Results are shown as means ±S. E. N=6 mice/group.]
For the compound `O=C(CCCCCCc1ccccc1)c1ncc(-c2ccccn2)o1` [OL-135], the “thermal pain response, hot plate test” value is “some delay”.

Staying with this series, now noted: SR 141716A 3 mg/kg i.p. 10 minutes before OL-135 10 mg/kg i.p., one hour after second injection.
On to `Cc1c(C(=O)NN2CCCCC2)nn(-c2ccc(Cl)cc2Cl)c1-c1ccc(Cl)cc1` [SR 141716A, reference compound], for which the “effect on OL-135 analgesia, hot plate test” value is “blocking the analgesic effects of OL-135”.

System in another series: not given
Test: not given
Conditions: not given
Turning to `CCCCCCCCC#CCCCCCCCC(=O)c1ncc(-c2ccccn2)o1` [Compound 205, 1-Oxo-1-[5-(2-pyridyl)oxazol-2-yl]-9-octadecyne], the melting point turned out to be 41 °C.
`CCCCCCCCCCCCCCCCCC(=O)c1ncc(-c2ccccn2)o1` [Compound 182, 1-(5-(Pyridin-2-yl)oxazol-2-yl)octadecan-1-one]: the melting point lay within 86 to 87 °C.
Still for that read-out and setting: to `CCC(=O)c1ncc(-c2ccccn2)o1` [Compound 194, 1-[5-(Pyridin-2-yl)oxazol-2-yl]propan-1-one] belongs 65 to 67 °C; to `CCCCCC(=O)c1ncc(-c2ccccn2)o1` [Compound 191, 1-(5-(Pyridin-2-yl)oxazol-2-yl)hexan-1-one], 49 to 50.5 °C.
Same read-out and setting: to `O=C(CCCCCc1ccccc1)c1ncc(-c2ccccn2)o1` [Compound 199, 1-Oxo-1-[5-(2-pyridyl)oxazol-2-yl]-6-phenylhexane] belongs 43.5 to 45.5 °C.
On the same count and under the same terms, to `CCCCCCCCCCCC(=O)c1ncc(-c2ccccn2)o1` [Compound 185, 1-(5-(Pyridin-2-yl)oxazol-2-yl)dodecan-1-one] belongs 73 to 74 °C; to `C#CCCCCCCCC(=O)c1ncc(-c2ccccn2)o1` [Compound 204, 1-Oxo-1-[5-(2-pyridyl)oxazol-2-yl]-9-decyne], 64.5 to 65.5 °C.
`CCCCCCCCCCCCCCCC(=O)c1ncc(-c2ccccn2)o1` [Compound 183, 1-(5-(Pyridin-2-yl)oxazol-2-yl)hexadecan-1-one] came in with a melting point of 78 to 80 °C.
On the same count and under the same terms, in the case of `CCCCCCCC(=O)c1ncc(-c2ccccn2)o1` [Compound 189, 1-(5-(Pyridin-2-yl)oxazol-2-yl)octan-1-one] it was 56 °C.
`CCCCCCC(=O)c1ncc(-c2ccccn2)o1` [Compound 190, 1-(5-(Pyridin-2-yl)oxazol-2-yl)heptan-1-one] displayed a melting point of 52 °C.
Same read-out and setting: in the case of `CCCCCCCCC(=O)c1ncc(-c2ccccn2)o1` [Compound 188, 1-(5-(Pyridin-2-yl)oxazol-2-yl)nonan-1-one] it was 56 to 57 °C; in that of `O=C(CCCCc1ccccc1)c1ncc(-c2ccccn2)o1` [Compound 198, 1-Oxo-1-[5-(2-pyridyl)oxazol-2-yl]-5-phenylpentane], 49 to 51 °C; in that of `C=CCCCCCCCC(=O)c1ncc(-c2ccccn2)o1` [Compound 203, 1-Oxo-1-[5-(2-pyridyl)oxazol-2-yl]-9-decene], 55 to 57 °C.
The same measure, in the same setting: in the case of `CCCCCCCCCC(=O)c1ncc(-c2ccccn2)o1` [Compound 187, 1-(5-(Pyridin-2-yl)oxazol-2-yl)decan-1-one] it was 56 to 57 °C; in that of `CCCCC(=O)c1ncc(-c2ccccn2)o1` [Compound 192, 1-(5-(pyridin-2-yl)oxazol-2-yl)pentan-1-one], 36 to 37 °C.
On the same count and under the same terms, in the case of `CCCCCCCCCCCCCC(=O)c1ncc(-c2ccccn2)o1` [Compound 184, 1-(5-(Pyridin-2-yl)oxazol-2-yl)tetradecan-1-one] it was 79 to 80 °C.
As for `O=C(CCCCCCCc1ccccc1)c1ncc(-c2ccccn2)o1` [Compound 201, 1-Oxo-1-[5-(2-pyridyl)oxazol-2-yl]-8-phenyloctane], the melting point fell in the range of 72 to 73 °C.
For the compound `CCCC(=O)c1ncc(-c2ccccn2)o1` [Compound 193, 1-[5-(Pyridin-2-yl)oxazol-2-yl]butan-1-one], the melting point is 54 to 55 °C.
